Data published in patent US5399566A, “Pyridine derivatives having angiotensin II antagonism” (Meiji Seika Kabushiki Kaisha, priority 1990, dated 1995).

What was measured:
[1] = Toxicity test, oral, mice; settings: mouse, in vivo, ddY male mice 5 weeks old
Protocol: Several compounds of the present invention represented by the general formula (I) were administered orally by compulsion to ddY male mice of 5 weeks old (average weight, ca. 20 g).

[2] = system: hypertensive action by angiotensin II; assay: Inhibition on the hypertensive action by an exogenous angiotensin II in conscious rats; format: in vivo, Spraque-Dawley (SD) male rats; settings: oral; for ED50: Rattus norvegicus, within 6 hours after administration, read-out: ED50 (dose required for inhibiting the hypertensive action by angiotensin II to the extent of 50%); for inhibitory effect on the hypertensive action by angiotensin II: angiotensin II 0.1 μg/kg i.v.
Text: (§1) The angiotensin II antagonistic activities in vitro were compared on the basis of the intensities (pA2 value) of antagonizing the contraction response to angiotensin II at the isolated thoracic aorta of rabbit. The in vivo activities were examined by comparing the inhibitory effects on the hypertensive action by an exogenous angiotensin II in a non-anesthetized rat and the hypotensive effects of a renal hypertensive rat or a spontaneously hypertensive rat.
Anesthetized Spraque-Dawley (SD) male rats were cannulated into a femoral artery and a femoral vein and used for the experiment at the time when it has elapsed at least 24 hours after the operation. The hypertensive action caused by angiotensin II (0.1 μg/kg) which has been administered through the vein catheter was measured under conscious and unrestrained condition before and after administration of the compound. The artery catheter was connected to a pressure transducer to measure a mean blood pressure, and the subject compounds were orally administered in the form of a homogeneous suspension in a 0.5% aqueous carboxymethyl cellulose solution.
The intensities of the inhibitory effects within 6 hours after administration of the compound were examined on the basis of the dose of the compound required for inhibiting the hypertensive action by angiotensin II to the extent of 50% (ED50 values).

[3] = target: T1, contraction response to angiotensin II at the isolated thoracic aorta of rabbit (Oryctolagus cuniculus, UniProt P34976); assay: In vitro angiotensin II antagonism, isolated rabbit thoracic aorta (Schild pA2); format: cell-based; settings: Schild plot
T1 construct: A strip of thoracic aorta of a male rabbit (2.5-3.0 kg) was prepared by the usual method; from tissue; host or cells: rabbit thoracic aorta strip
T1 sequence (P34976 1-359): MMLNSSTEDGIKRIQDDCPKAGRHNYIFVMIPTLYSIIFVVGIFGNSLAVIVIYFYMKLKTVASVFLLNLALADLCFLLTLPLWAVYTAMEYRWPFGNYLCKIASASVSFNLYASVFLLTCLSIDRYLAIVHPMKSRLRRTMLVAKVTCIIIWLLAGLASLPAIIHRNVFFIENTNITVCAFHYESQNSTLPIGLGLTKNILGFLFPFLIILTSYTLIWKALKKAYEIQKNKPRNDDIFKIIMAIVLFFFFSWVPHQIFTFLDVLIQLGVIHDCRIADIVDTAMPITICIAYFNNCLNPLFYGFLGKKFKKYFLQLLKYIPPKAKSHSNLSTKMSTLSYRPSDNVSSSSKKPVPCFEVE
Text: as §1
A strip of thoracic aorta of a male rabbit (2.5-3.0 kg) was prepared by the usual method and suspended in an organ bath containing well oxygenated Krebs-Henseleit solution at 37° C. The pA2 value was calculated according to the method described by H. O. Schild (British Journal of Pharmacology and Chemotherapeutics, 2, 189-206, 1947). A strip treated with 3-5 doses of a subject compound in an amount of 10^-6 M-10^-10 M and a strip treated with no drug were employed for obtaining a dose-response curve by angiotensin II. Log (dose ratio--1) was calculated from the shift of the dose-response curve of the subject compound, and pA2 value was obtained from the Schild plottings.

Fisher 344 male rats = assay: Antianxiety effect, elevated plus maze; format: in vivo; settings: diazepam 3 mg/kg
Protocol: The subject compounds were examined on their antianxiety effect with the light and dark box according to the method described by B. Costall et al. (Pharmacology Biochemistry and Behavior, 32, 777-785, 1989) and with the elevated plus maze by S. Pell et al. (Journal of Neuroscience Methods, 14, 149-167, 1985).
To Fisher 344 male rats (5-6 weeks old), the subject compounds were orally administered at a dose of 1-100 μg/kg in the form of a homogeneous suspension or solution in a 0.5% aqueous carboxymethyl cellulose solution. Among the four arms of the elevated plus maze (a device in which four arms are intersected crosswise and connected together at a height of 50 cm from the floor), the two arms with side walls are referred to as closed arms and the two arms without side walls are referred to as open arms. […] As the indices of the behavior, the latency until stepped out from the arm first placed to the other arm and the durations in the respective arms were measured, and the other behaviors were recorded. Diazepam was used as a control agent, and the drug administered group and the solvent administered group (group to which a 0.5% aqueous carboxymethyl cellulose solution was administered)were compared for the behaviors.

**Q.** With `CCc1cc(OCc2ccc(-c3ccccc3-c3nnn[nH]3)cc2)cc(CC)n1` [Example 1, 2,6-Diethyl-4-[2'-(tetrazol-5-yl)biphenyl-4-yl]-methoxypyridine] as the compound, how does the LD50 [1] read?
**A.** Its LD50 is greater than 1000 mg/kg.

**Q.** And the ED50 [2]?
**A.** Its ED50 is 0.6 mg/kg.

**Q.** What about the “inhibitory effect on the hypertensive action by angiotensin II” value (from here on “inhibitory effect”) ([2]; dose of 1 mg/kg or less) of the same compound?
**A.** The value was “significant inhibitory effects”.

**Q.** And the Kb [3]?
**A.** The Kb was 5.25 nM.

**Q.** What does the source list for `CCc1cc(OCc2ccc(-c3ccccc3-c3nnn[nH]3)cc2)cc(C)n1` [Example 3, 2-ethyl-6-methyl-4-[2'-(tetrazol-5-yl)biphenyl-4-yl]-methoxypyridine]?
**A.** LD50 [1]: > 1000 mg/kg; ED50 [2]: 1.35 mg/kg; Kb [3]: 5.75 nM

**Q.** With `CCOc1c(OCc2ccc(-c3ccccc3-c3nnn[nH]3)cc2)cc(C)nc1C` [Example 12, 3-ethoxy-2,6-dimethyl-4-[2'-(tetrazol-5-yl)biphenyl-4-yl]methoxypyridine] as the compound, how does the LD50 [1] read?
**A.** Its LD50 is greater than 1000 mg/kg.

**Q.** What about the ED50 [2] of the same compound?
**A.** The ED50 was 0.56 mg/kg.

**Q.** And the “inhibitory effect” value ([2]; dose of 1 mg/kg or less)?
**A.** Its value is “significant inhibitory effects”.

**Q.** What about the Kb [3] of the same compound?
**A.** The Kb was 1.74 nM.

**Q.** For `CCc1nc(C)cc(OCc2ccc(-c3ccccc3-c3nnn[nH]3)cc2)c1OC` [Example 16, 2-ethyl-3-methoxy-6-methyl-4-[2'-(tetrazol-5-yl)biphenyl-4-yl]methoxypyridine], which “inhibitory effect” value ([2]; dose of 1 mg/kg or less) is on record?
**A.** The value was “significant inhibitory effects”.

**Q.** What about the Kb [3] of the same compound?
**A.** Its Kb is 0.912 nM.

**Q.** For `Cc1cc(OCc2ccc(-c3ccccc3-c3nnn[nH]3)cc2)c(OCc2ccccc2)c(C)n1` [Example 21, 3-benzyloxy-2,6-dimethyl-4-[2'-(tetrazol-5-yl)biphenyl-4yl]-methoxypyridine], which “inhibitory effect” value ([2]; 3 mg/kg) is on record?
**A.** Its value is “significant inhibitory effects”.

**Q.** What about the Kb [3] of the same compound?
**A.** The Kb was 6.76 nM.

**Q.** Which “inhibitory effect” value ([2]; 3 mg/kg) does the source give for `CCOC(=O)c1c(OCc2ccc(-c3ccccc3-c3nnn[nH]3)cc2)cc(CC)nc1C` [Example 44, 3-ethoxycarbonyl-6-ethyl-2-methyl-4-[2'-(tetrazol-5-yl)-biphenyl-4-yl]methoxypyridine] here?
**A.** Its value is “significant inhibitory effects”.

**Q.** And the Kb [3]?
**A.** Its Kb is 1 nM.

**Q.** With `CCc1nc(C)cc(OCc2ccc(-c3ccccc3-c3nnn[nH]3)cc2)c1C(=O)OC` [Example 46, 2-ethyl-3-methoxycarbonyl-6-methyl-4-[2'-(tetrazol-5-yl)-biphenyl-4-yl]methoxypyridine] as the compound, how does the “inhibitory effect” value ([2]; dose of 1 mg/kg or less) read?
**A.** Its value is “significant inhibitory effects”.

**Q.** And the Kb [3]?
**A.** The Kb was 0.617 nM.

**Q.** Which results are given for `Cc1cc(OCc2ccc(-c3ccccc3-c3nnn[nH]3)cc2)c(C(=O)N(C)C)c(C)n1` [Example 53, 2,6-Dimethyl-3-(N,N-dimethylcarbamoyl)-4-[2'-(tetrazol-5-yl)bipbenyl-4-yl]methoxypyridine]?
**A.** inhibitory effect on the hypertensive action by angiotensin II ([2]; 3 mg/kg): significant inhibitory effects; Kb [3]: 3.02 nM

**Q.** Which Kb [3] does the source give for `Cc1cc(OCc2ccc(-c3ccccc3-c3nn[nH]n3)cc2)c(CO)c(C)n1` [Example 55, 3-Hydroxymethyl-2,6-dimethyl-4-[2'-(tetrazol-5-yl)biphenyl-4-yl]methoxypyridine] here?
**A.** The Kb was 12.3 nM.

**Q.** What does the source list for `COCc1c(OCc2ccc(-c3ccccc3-c3nnn[nH]3)cc2)cc(C)nc1C` [Example 57, 3-Methoxymethyl-2,6-dimethyl-4-[2'-(tetrazol-5-yl)-biphenyl-4-yl]methoxypyridine]?
**A.** inhibitory effect on the hypertensive action by angiotensin II ([2]; 3 mg/kg): significant inhibitory effects; Kb [3]: 6.17 nM

**Q.** For `CC(=O)OCc1c(OCc2ccc(-c3ccccc3-c3nnn[nH]3)cc2)cc(C)nc1C` [Example 67, 3-Acetoxymethyl-2,6-dimethyl-4-[2'-(tetrazol-5-yl)-biphenyl-4-yl]methoxypyridine], which Kb [3] is on record?
**A.** Its Kb is 0.129 nM.

**Q.** With `Cc1cc(OCc2ccc(-c3ccccc3-c3nnn[nH]3)cc2)c(C=O)c(C)n1` [Example 68, 3-Formyl-2,6-dimethyl-4-[2'-(tetrazol-5-yl)biphenyl-4-yl]methoxypyridine] as the compound, how does the Kb [3] read?
**A.** The Kb was 5.89 nM.

**Q.** Which “inhibitory effect” value ([2]; 3 mg/kg) does the source give for `CCc1cc(OCc2ccc(-c3ccccc3C(=O)O)cc2)cc(CC)n1` [Example 81, 2,6-diethyl-4-(2'-carboxybiphenyl-4-yl)m ethoxypyridine] here?
**A.** Its value is “significant inhibitory effects”.

**Q.** What about the Kb [3] of the same compound?
**A.** Its Kb is 9.77 nM.

**Q.** For `CCOc1c(OCc2ccc(-c3ccccc3C(=O)O)cc2)cc(C)nc1C` [Example 83, 3-ethoxy-2,6-dimethyl-4-(2'-carboxybiphenyl-4yl)methoxypyridine], which LD50 [1] is on record?
**A.** Its LD50 is greater than 1000 mg/kg.

**Q.** And the ED50 [2]?
**A.** Its ED50 is 1.21 mg/kg.

**Q.** And the “inhibitory effect” value ([2]; dose of 1 mg/kg or less)?
**A.** The value was “significant inhibitory effects”.

**Q.** What about the Kb [3] of the same compound?
**A.** Its Kb is 28.2 nM.

**Q.** For `CN1C(=O)CN=C(c2ccccc2)c2cc(Cl)ccc21` [diazepam], which “duration out of the closed arm” value (Fisher 344 male rats) is on record?
**A.** The value was “increased”.

**Q.** What about the “latency until stepped out from the arm first placed” value (Fisher 344 male rats) of the same compound?
**A.** Its value is “significantly decreased”.

**Q.** And the transitions (Fisher 344 male rats)?
**A.** Its transitions is “increased”.
